According to PubChem BioAssay AID192 (DTP/NCI, 2004):
Values joined by “and” are separate entries in the source; they are usually repeats but may differ in a detail not shown here. Identical values can stand only once. Toxic doses and inconclusive results are not listed. How the source made its calls: active means survival T/C of 150% or more; inactive means T/C below 125% in these data.

Test system: BDF1 mice, B16 melanoma ip, median survival T/C
Experiment: NCI In Vivo Anticancer Drug Screen. Data for tumor model B16 Melanoma (intraperitoneal) in B6D2F1 (BDF1) mice
Settings: endpoint: median survival time, higher = longer survival
How it was run: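 Transplantable tumor model; survival or tumor size measured; reported as T/C, treated over vehicle control.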

[1] = dose: 12.5 mg/kg/injection, schedule: Q01DX009 (ip), vehicle: saline
[2] = dose: 25.0 mg/kg/injection, schedule: Q01DX009 (ip), vehicle: saline
[3] = dose: 50.0 mg/kg/injection, schedule: Q01DX009 (ip), vehicle: saline
[4] = dose: 100.0 mg/kg/injection, schedule: Q01DX009 (ip), vehicle: saline
[5] = dose: 12.5 mg/kg/injection, schedule: Q01DX009 (ip), vehicle: Klucel (hydroxypropylcellulose) (HPC)
[6] = dose: 25.0 mg/kg/injection, schedule: Q01DX009 (ip), vehicle: Klucel (hydroxypropylcellulose) (HPC)
[7] = dose: 50.0 mg/kg/injection, schedule: Q01DX009 (ip), vehicle: Klucel (hydroxypropylcellulose) (HPC)
[8] = dose: 100.0 mg/kg/injection, schedule: Q01DX009 (ip), vehicle: Klucel (hydroxypropylcellulose) (HPC)
[9] = dose: 25.0 mg/kg/injection, schedule: Q01DX009 (ip), vehicle: saline with Tween-80
[10] = dose: 50.0 mg/kg/injection, schedule: Q01DX009 (ip), vehicle: saline with Tween-80
[11] = dose: 100.0 mg/kg/injection, schedule: Q01DX009 (ip), vehicle: saline with Tween-80
[12] = dose: 75.0 mg/kg/injection, schedule: Q01DX009 (ip), vehicle: Klucel (hydroxypropylcellulose) (HPC)
[13] = dose: 150.0 mg/kg/injection, schedule: Q01DX009 (ip), vehicle: Klucel (hydroxypropylcellulose) (HPC)
[14] = dose: 300.0 mg/kg/injection, schedule: Q01DX009 (ip), vehicle: Klucel (hydroxypropylcellulose) (HPC)
[15] = dose: 200.0 mg/kg/injection, schedule: Q01DX009 (ip), vehicle: Klucel (hydroxypropylcellulose) (HPC)
[16] = dose: 400.0 mg/kg/injection, schedule: Q01DX009 (ip), vehicle: Klucel (hydroxypropylcellulose) (HPC)
[17] = dose: 100.0 mg/kg/injection, schedule: Q04DX003 (ip), vehicle: saline
[18] = dose: 200.0 mg/kg/injection, schedule: Q04DX003 (ip), vehicle: saline

Measured: T/C

NC1=NC(=O)N2CC12 (centres undefined)
inactive: [1] 100 % of control | [2] 103 % of control | [3] 105 % of control | [4] 103 % of control

Nc1ccc(-c2ccc3ccccc3n2)cc1
inactive: dose: 6.25 mg/kg/injection, schedule: Q01DX009 (ip), vehicle: Klucel (hydroxypropylcellulose) (HPC) 111 % of control | [5] 104 % of control | [6] 91 % of control

CCOC(=O)C(=Cc1ccc(Cl)cc1)C(=O)OCC
inactive: [5] 94 % of control | [7] 94 % of control | [8] 89 % of control

CCC(C)C(C(=O)OCCN(C)C)c1ccccc1 (centres undefined)
inactive: [9] 100 % of control | [10] 112 % of control | [11] 99 % of control

Cc1ccc(NC(=O)COc2ccc(Cl)cc2)c([N+](=O)[O-])c1
inactive: [12] 95 % of control | [13] 97 % of control | [14] 90 % of control

CCOC(=O)C(Cc1c[nH]c2cc(N)ccc12)(NC(C)=O)C(=O)OCC
inactive: [8] 89 % of control | [15] 87 % of control

CN=C(N)Nc1ccc(C(=O)Oc2ccc([N+](=O)[O-])cc2)cc1
inactive: [5] 103 % of control | [6] 102 % of control | [7] 104 % of control | [8] 106 % of control

COc1cc(NS(=O)(=O)c2ccc(C(C)=O)cc2)nc(OC)n1
inactive: [8] 100 % of control | [15] 100 % of control | [16] 93 % of control

COc1ccc(CN(CCN(C)C)c2ccccn2)cc1
inactive: [5] 100 % of control | [6] 96 % of control | [7] 93 % of control

CCC(=O)NC1=C(N2CC2)C(=O)C(NC(=O)CC)=C(N2CC2)C1=O
inactive: dose: 0.5 mg/kg/injection, schedule: Q01DX009 (ip), vehicle: saline 107 % of control | dose: 1.0 mg/kg/injection, schedule: Q01DX009 (ip), vehicle: saline 107 % of control | dose: 2.0 mg/kg/injection, schedule: Q01DX009 (ip), vehicle: saline 113 % of control

CN(C)C1=NC(=O)C(c2ccccc2)O1 (centres undefined)
inactive: [1] 117 % of control | [2] 105 % of control | [3] 111 % of control | [4] 114 % of control

Nc1ncnc2c1c1c(=O)[nH]cnc1n2C1OC(CO)C(O)C1O (centres undefined)
inactive: [7] 86 % of control

Cc1ccc([N+](=O)[O-])cc1NC(=O)COc1ccc(Cl)cc1Cl
inactive: [12] 90 % of control | [13] 88 % of control | [14] 86 % of control

CCO/C=C1\SC(=S)N(c2ccco2)C1=O
inactive: [2] 111 % of control | dose: 25.0 mg/kg/injection, schedule: Q04DX003 (ip), vehicle: saline 116 % of control | [3] 98 % of control | dose: 50.0 mg/kg/injection, schedule: Q04DX003 (ip), vehicle: saline 105 % of control | [4] 117 % of control | [17] 116 % of control | [18] 102 % of control

COc1cccc(N2C(=O)CSC2=S)c1
inactive: [8] 93 % of control | [15] 90 % of control

C[C@H]1C/C=C/[C@H]2[C@@H]3O[C@]3(C)[C@@H](C)[C@H]3[C@H](Cc4ccccc4)NC(=O)[C@]32OC(=O)O/C=C/[C@@](C)(O)C1=O
inactive: dose: 1.25 mg/kg/injection, schedule: Q01DX009 (ip), vehicle: Klucel (hydroxypropylcellulose) (HPC) 86 % of control | dose: 2.5 mg/kg/injection, schedule: Q01DX009 (ip), vehicle: Klucel (hydroxypropylcellulose) (HPC) 92 % of control | dose: 10.0 mg/kg/injection, schedule: Q01DX009 (ip), vehicle: Klucel (hydroxypropylcellulose) (HPC) 89 % of control

S=C(NNc1ccccc1)Nc1ccccc1
inactive: [6] 97 % of control | [7] 106 % of control

Nc1nc(=S)c2ncn(C3OC(CO)C(O)C3O)c2[nH]1 (centres undefined)
inactive: dose: 0.5 mg/kg/injection, schedule: Q01DX009 (ip), vehicle: saline with Tween-80 109 % of control | dose: 1.0 mg/kg/injection, schedule: Q01DX009 (ip), vehicle: saline sonified 106 % of control | dose: 1.0 mg/kg/injection, schedule: Q01DX009 (ip), vehicle: saline with Tween-80 122 % of control | dose: 2.0 mg/kg/injection, schedule: Q01DX009 (ip), vehicle: saline sonified 102 % of control | dose: 2.0 mg/kg/injection, schedule: Q01DX009 (ip), vehicle: saline with Tween-80 113 % of control

O=c1c2ccccc2sc2ccc(Br)cc12
inactive: [8] 110 % of control | [15] 100 % of control | [16] 102 % of control

CCNC(=O)OCc1c(COC(=O)NCC)c(-c2ccc(Cl)c(Cl)c2)n2c1CCC2
inactive: dose: 6.25 mg/kg/injection, schedule: Q01DX009 (ip), vehicle: saline with Tween-80 122 % of control | [9] 90 % of control

CCN(CC)Cc1c(C)cc2oc(=O)c3c(c2c1O)CCCC3
inactive: dose: 16.0 mg/kg/injection, schedule: Q01DX009 (ip), vehicle: Klucel (hydroxypropylcellulose) (HPC) 98 % of control | dose: 32.0 mg/kg/injection, schedule: Q01DX009 (ip), vehicle: Klucel (hydroxypropylcellulose) (HPC) 100 % of control | dose: 64.0 mg/kg/injection, schedule: Q01DX009 (ip), vehicle: Klucel (hydroxypropylcellulose) (HPC) 88 % of control

Nc1ccc(S(=O)(=O)c2ccc(N)cc2)cc1
inactive: dose: 12.5 mg/kg/injection, schedule: Q01DX009 (ip), vehicle: saline with Tween-80 107 % of control | [9] 97 % of control and 102 % of control | [10] 90 % of control and 94 % of control | [11] 93 % of control and 95 % of control | dose: 200.0 mg/kg/injection, schedule: Q01DX009 (ip), vehicle: saline with Tween-80 94 % of control

CN1C2CCC1CNC2
inactive: [17] 105 % of control | [18] 105 % of control | dose: 400.0 mg/kg/injection, schedule: Q04DX003 (ip), vehicle: saline 100 % of control

CN(C)N=Nc1ccccc1C(=O)NC#N
inactive: dose: 18.75 mg/kg/injection, schedule: Q01DX009 (ip), vehicle: Klucel (hydroxypropylcellulose) (HPC) 95 % of control | dose: 37.5 mg/kg/injection, schedule: Q01DX009 (ip), vehicle: Klucel (hydroxypropylcellulose) (HPC) 105 % of control

NC(=O)Nc1ccccc1
inactive: [4] 97 % of control | dose: 200.0 mg/kg/injection, schedule: Q01DX009 (ip), vehicle: saline 100 % of control | dose: 400.0 mg/kg/injection, schedule: Q01DX009 (ip), vehicle: saline 104 % of control

c1ccc2c(CC[n+]3cccc(C4OCCO4)c3)c[nH]c2c1
inactive: [1] 94 % of control | [2] 100 % of control | [3] 100 % of control

O=C(N=C1C=CC(=NC(=O)OCc2ccccc2)C=C1)OCc1ccccc1
inactive: [12] 98 % of control | [13] 92 % of control | [14] 91 % of control

FC(F)(F)c1ccc2c(c1)N(CCCN1CCN(CC[n+]3ccccc3)CC1)c1ccccc1S2
inactive: dose: 1.25 mg/kg/injection, schedule: Q01DX009 (ip), vehicle: saline 100 % of control | dose: 2.5 mg/kg/injection, schedule: Q01DX009 (ip), vehicle: saline 105 % of control | dose: 5.0 mg/kg/injection, schedule: Q01DX009 (ip), vehicle: saline 105 % of control and 107 % of control | dose: 10.0 mg/kg/injection, schedule: Q01DX009 (ip), vehicle: saline 89 % of control and 97 % of control
